Results: patent US6458391B1, “Compositions comprising oleum Melaleuca” (Safe ′N Sound Solutions, Inc., priority 1998, dated 2002)

Experiment: Toxicity and tissue irritation
Settings: 1,8-cineole content of the oil

## CC12CCC(CC1)C(C)(C)O2 [1,8-cineole]
  concentration that produces tissue irritation: above 10%
